In one series the test system is Aβ1-42. Conditions: LPS challenge for 7 days.
The nature of series [1]: Plasma and cerebral sulfide levels of mice after intraperitoneal administration. Type of series: in vivo. Conditions: 25 μmol/kg intraperitoneal, 90 minutes after administration. The text has this: Blood was drawn from left ventricle and centrifuged to collect the plasma. After perfusion with Tris-HCl buffer via left ventricle, brain was harvested, homogenized in Tris-HCl, and centrifuged. Plasma and supernatant of brain homogenate were derivatized with MBB and analyzed by HPLC.

For a further series, the system named is SH-SY5Y cells. In words: Oxygen-glucose deprivation (OGD) of SH-SY5Y cells, viability by LDH release, MTT and CV assays. The format is cell-based, Human. On the procedure: OGD for SH-SY5Y was performed by placing cells in a hypoxia chamber ([…] Technologies Inc.) for 15 hours, followed by 24 hours of reoxygenation as previously reported (FIG. 3A) (Serra-Pérez et al. (2008) Journal of Neurochemistry 106, 1237-1247). Briefly, medium was replaced with glucose-free RPMI 1640 with L-glutamine (Cellgro by Mediatech, Inc), deoxygenated with anaerobic gas mixture (93% N2-5% CO2-2% H2) for 30 minutes before use. Cells were then placed in a hypoxia chamber, flushed with anaerobic gas mixture (93% N2-5% CO2-2% H2) and incubated at 37° C. After 15 hours of hypoxia, medium was replaced with DMEM/F12 and incubated for 24 hours at 37° C. in 95% air/5% CO2 in a humidified incubator.
(§1) A microtiter plate containing cells was centrifuged at 250×g for 10 minutes and the supernatant was used for LDH measurement with LDH Cytotoxicity Detection Kit (Roche). After aspirating the medium, remaining cells were washed with PBS, then, 100 μl of 1% Triton-X was added to each well, followed by incubation at 37° C. for 30 minutes. Medium and lysates were used for LDH measurement at wavelength 492 nm. Percentage of released LDH was calculated with following formula: {LDH (medium)/LDH (medium+cell)×100}. Average value of control (cells without OGD) was deducted as background.
Ten μl of thiazolyl blue tetrazolium bromide solution (5 mg/ml in PH 7.4 PBS) was added to each well containing 100 μl of medium and cells, followed by incubation at 37° C. for 4 hours in the dark. Isopropanol (100 μl, 0.04 N HCl) was added to dissolve blue dye. After dissolved completely, absorbance was measured with plate-reader (Synergy 2, BioTek Instrument) at test wavelength 570 nm and reference wavelength 670 nm. Cell viability was determined by absorbance at 570 nm and reported as ratio to control cells (without OGD).
After aspirating culture medium, cells were fixed and stained by 0.5% CV in 95% (v/v) ethanol for 5 minutes, then washed by tap water several times. After taking photographs, 1% sodium dodecylsulfate solution was added to each well to elute blue dye. Absorbance was measured with plate-reader at 595 nm of wavelength. Values were shown as ratio to control (cells without OGD).
A general note: Release of lactate dehydrogenase indicates damage to the cell membrane.

The test system of series [2] is murine primary cortical neurons. The experiment in a line: Intracellular calcium level [Ca2+]i (Fura-2/AM) with or without glutamate. The format is cell-based, mice. The conditions noted are these: 20 μM.
Series [3] has the same test system. The experiment in a line: Amyloid beta-induced toxicity in murine primary cortical neurons (LDH release, MTT). The format is cell-based, mice. Conditions: 24 hours incubation with Aβ1-42 at 20 μM. The procedure: FIG. 13A-B is a set of two bar graphs depicting cell viability of murine primary cortical neurons exposed to 20 μM amyloid beta (Aβ) and treated with memantine, ACS48, or S-memantine at 5, 10, or 30 μM. Cell viability was estimated by LDH release assay in the left graph and MTT assay in the right graph.

The subject of another series is mice challenged with LPS. In words: LPS-induced cognitive impairment, Morris water-maze.
Series [4] concerns SH-SY5Y. In words: Intracellular GSH levels in SH-SY5Y (HPLC). Conditions: 50 μM, 8 hours. The format is cell-based, Human. The procedure: Intracellular GSH level of SH-SY5Y was measured using HPLC method as previously reported (Kimura et al. (2009) Antioxidants & Redox Signaling 12, 1-13). Briefly, cells were seeded into 6 cm dishes (5×10^5 cells per dish) and treated with 50 μM H2S donors or memantine with or without 2 mM glutamate for 8 hours, followed by washing with ice-cold PBS. Cells were scraped and transferred to a microfuge tube and sonicated. Some fraction of lysate was used for protein assay. After centrifugation, 75 μl of supernatant, 26 μl of 2-(cyclohexylamino) ethanesulfonic acid (CHES, 0.5 M, PH 8.4), and 4 μl of 50 μM MBB were mixed and incubated at room temperature in dark for 30 minutes. Acetic acid (100 μl, 30% v/v) was added, followed by centrifugation at 15,000×g for 10 min after 5 min incubation of the tube on ice. The supernatant was analyzed using HPLC at wavelength of λex=370 nm and λem=486 nm.

Series [5] concerns murine primary cortical neurons. In words: Cytotoxicity of H2S donors to murine primary cortical neurons (LDH release). The format is cell-based, mice. The conditions noted are these: 50 μM; 24 hours; without memantine. On the procedure:
as §1

Series [6] deals with SH-SY5Y. In words: Amyloid beta-induced toxicity in SH-SY5Y (LDH release, MTT). Type of series: cell-based, Human. The conditions noted are these: 24 hours incubation with Aβ1-42 at 20 μM. On the procedure: FIG. 12A-B is a set of two bar graphs showing cell viability of SH-SY5Y cells exposed to 20 μM amyloid beta (Aβ) and treated with memantine, ACS48, or S-memantine at 20 or 50 μM. Cell viability was estimated by LDH release assay in the left graph and MTT assay in the right graph.

In series [7] the test system is phosphorylated ERK1/2 at threonine 202 and tyrosine 204. The experiment in a line: Immunoblot of phosphorylated ERK1/2 in SH-SY5Y after OGD. The format is cell-based, Human. The conditions noted are these: 50 μM added 8 hours after end of OGD. On the procedure: OGD for SH-SY5Y was performed by placing cells in a hypoxia chamber ([…] Technologies Inc.) for 15 hours, followed by 24 hours of reoxygenation as previously reported (FIG. 3A) (Serra-Pérez et al. (2008) Journal of Neurochemistry 106, 1237-1247). Briefly, medium was replaced with glucose-free RPMI 1640 with L-glutamine (Cellgro by Mediatech, Inc), deoxygenated with anaerobic gas mixture (93% N2-5% CO2-2% H2) for 30 minutes before use. Cells were then placed in a hypoxia chamber, flushed with anaerobic gas mixture (93% N2-5% CO2-2% H2) and incubated at 37° C. […]
Protein levels in SH-SY5Y were determined by standard immunoblot techniques using primary antibodies (1:1,000, Cell Signaling Technology Inc., Danvers, Mass.) against cleaved caspase-3, caspase-3, phosphorylated Akt at threonine 308, Akt, phosphorylated ERK1/2 at threonine 202 and tyrosine 204, Erk1/2, β-tubulin and phosphorylated tau protein at serine 202 and threonine 205 (1:250; Thermo scientific, MN1020), tau protein (1:1000; Thermo scientific, MN1010). Bound antibody was detected with a horseradish peroxidase-linked antibody directed against rabbit IgG (1:10,000˜1:25,000; Cell Signaling Technology Inc.), or mouse IgG (1:2,000; GE healthcare, NA931V) and was visualized using chemiluminescence with ECL Advance kit (GE healthcare).
On the technique in general: In western blotting, separated proteins are transferred to a membrane and probed.

In series [8] the test system is phosphorylated Akt at threonine 308. In words: Immunoblot of phosphorylated Akt in SH-SY5Y after OGD. Type of series: cell-based, Human. Conditions: 50 μM added 8 hours after end of OGD.
Series [9] has as its system phosphorylated tau protein at serine 202 and threonine 205. The experiment in a line: LPS-induced tau phosphorylation in mice hippocampus (immunoblot). Type of series: in vivo. The conditions noted are these: 90 μmol/kg pretreatment.
The mark [10] stands for this setting: time- and dose-range studies, SH-SY5Y.

Regarding `C[C@]12C[C@@H]3C[C@](C)(C1)C[C@@](NC(=O)c1ccc(-c4cssc4=S)cc1)(C3)C2` [S-memantine, N-((1r,3R,5S,7r)-3,5-dimethyladamantan-1-yl)-4-(3-thioxo-3H-1,2-dithiol-4-yl)-benzamide], the “Aβ1-42 accumulation in mice cortex, or hippocampus” value in the series with Aβ1-42 (90 μmol/kg pretreatment) was “prevented Aβ1-42 accumulation”. Also, in the series with Aβ1-42, the “Prevention of Aβ1-42 accumulation compared with memantine” value is on record as “prevented Aβ1-42 accumulation more markedly than did memantine”. Besides, in [1], the Cerebral sulfide levels result is reported as “increased”. The Plasma sulfide levels result in [1] is recorded as “increased plasma sulfide levels”. Moreover, the “Cell viability after OGD (LDH release, MTT, CV assays)” value with SH-SY5Y cells (50 μM added 8 hours after the end of OGD, 15 hours OGD, 24 hours reoxygenation) is reported as “improved the viability of SH-SY5Y cells more markedly than did addition of ACS48 or memantine”. Moreover, in the series on SH-SY5Y cells (incubation starting at any time between pre-OGD and up to 8 hours after OGD), the “Cell viability after OGD” value was “improved”. The “Most effective dose to improve viability after OGD” value with SH-SY5Y cells (setting [10]) is 50 µM. In the series with SH-SY5Y cells (setting [10]), the “Most effective time point of addition after the end of OGD” value worked out at 8 h. The Glutamate-induced calcium accumulation entry in series [2] (100 μM glutamate) is “suppressed calcium accumulation”. Also, the “Magnitude of calcium accumulation compared with Na2S or ACS48” value in [2] (without glutamate) was “markedly smaller than that induced by Na2S or ACS48”. The “Cell viabilities after Aβ1-42 compared with memantine” value (in [3]; in the series with SH-SY5Y [6]) was “improved cell viabilities more markedly than did memantine” in each case. For the same compound, the “Cell viabilities after Aβ1-42” value is recorded as “improved cell viabilities” in series [3] (compound 5, 10 or 30 μM) and “improved cell viabilities” in the series on SH-SY5Y [6] (compound 20 or 50 μM). Also, in the series with mice challenged with LPS (90 μmol/kg i.p.), the “Swimming speed in Morris water-maze test” value is on record as “did not change it”. Besides, the “Latency until getting platform in Morris water-maze test” value in the series with mice challenged with LPS (90 μmol/kg i.p. 30 min before LPS, 4 hours after LPS-challenge) is “improved latency”. Moreover, in the series with SH-SY5Y [4], the “Magnitude of increase of GSH levels compared with Na2S or ACS48” value was “greater than with Na2S or ACS48”. Also, the “Intracellular GSH levels” value is on record as “restored intracellular GSH levels” in the series on SH-SY5Y [4] (with 2 mM glutamate) and “increased intracellular GSH levels” with SH-SY5Y [4] (without glutamate). Moreover, the “LDH release (cytotoxicity)” value in series [5] was “did not induce LDH release”. Besides, the “Dephosphorylation of ERK after OGD” value in [7] is “attenuated dephosphorylation of ERK”. The “Akt phosphorylation after OGD” value in [8] is listed as “did not affect Akt phosphorylation”. In [9], the “LPS-induced tau phosphorylation at serine 202 and threonine 205 in mice hippocampus” value was “prevented LPS-induced tau phosphorylation”.

(Values after patent US9242009B2, “Compositions and methods to treat neurodegenerative diseases” (The General Hospital Corporation, priority 2012, dated 2016).)
